{"source": "paper PMC5830590", "about": "(British Journal of Cancer, 2018)", "key": {"[1]": {"assay": "Plasma pharmacokinetics on cycle 1, day 1", "format": "in vivo, human"}, "[2]": {"assay": "Urinary excretion up to 25 h after start of copanlisib infusion", "format": "in vivo, human", "conditions": "25 h urine collection interval; expansion cohort"}, "[3]": {"tested_on": "patients with chronic lymphocytic leukaemia, small lymphocytic lymphoma and indolent non-Hodgkin’s lymphomas", "conditions": "ref US Food and Drug Administration, 2016; cited from earlier work"}, "PIK3CA-mutated cells": {"tested_on": "PIK3CA-mutated cells", "conditions": "preclinical studies; ref Liu et al, 2013; cited from earlier work"}, "[4]": {"tested_on": "patients with advanced malignancies", "assay": "Adverse events", "format": "in vivo, human"}, "[5]": {"tested_on": "multidrug and toxin extrusion protein 2K (MATE2-K)", "conditions": "in vitro; no reference given; cited from earlier work"}, "[6]": {"tested_on": "class I PI3K (PI3K-δ and PI3K-α isoforms)", "conditions": "pan-class I PI3K inhibitor; ref Liu et al, 2013; Haike et al, 2014; cited from earlier work"}, "[7]": {"tested_on": "patients with advanced malignancies", "assay": "Dose escalation", "format": "in vivo, human"}, "[8]": {"tested_on": "advanced or refractory solid tumours", "assay": "Tumour response by RECIST version 1.1", "format": "in vivo, human"}}, "note": "“Also recorded” adds a separate entry of the source.", "data": [{"smiles": "COc1c(OCCCN2CCOCC2=O)ccc2c3n(c(=NC(=O)c4cnc(N)nc4)nc12)CCN3", "note": "[M-1]", "values": [{"measurement": "median tmax of M-1, range across cohorts", "setting": "[1]; copanlisib 0.8 mg kg^−1, cycle 1, day 1", "value": "2 to 4", "unit": "h"}, {"measurement": "effect of co-administration of CisGem on plasma exposure (Cmax and AUC(0–25))", "setting": "[1]; in vivo", "value": "no influence"}, {"measurement": "estimated geometric mean terminal half-life of M-1 versus copanlisib", "setting": "[1]; in vivo", "value": "comparable with that of copanlisib"}, {"measurement": "amount excreted into urine, % of dose", "setting": "[2]", "value": "~0.9", "unit": "%"}]}, {"smiles": "CC[C@H](Nc1ncnc2[nH]cnc12)c1nc2cccc(F)c2c(=O)n1-c1ccccc1", "note": "[idelalisib]", "values": [{"measurement": "rate of AEs in combination with other anti-cancer therapies", "setting": "[3]", "value": "increased rate of AEs, including deaths"}]}, {"smiles": "COc1c(OCCCN2CCOCC2)ccc2c1N=C(NC(=O)c1cnc(N)nc1)N1CCN=C21", "note": "[copanlisib]", "values": [{"measurement": "anti-tumour activity in PIK3CA-mutated cells", "setting": "PIK3CA-mutated cells", "value": "anti-tumour activity"}, {"measurement": "dose dependence of plasma exposure (Cmax and AUC)", "setting": "[1]; dose range 0.6–0.8 mg kg^−1", "value": "nearly dose-proportional increase"}, {"measurement": "half-life", "setting": "[1]; human, plasma, intravenous", "value": "25 to 26", "unit": "h"}, {"measurement": "effect of co-administration of CisGem on plasma exposure (Cmax and AUC(0–25))", "setting": "[1]; in vivo", "value": "No substantial differences; also recorded: no influence"}, {"measurement": "TEAE any grade: decreased platelet count", "setting": "[4]; all 50 patients", "value": 80, "unit": "%"}, {"measurement": "TEAE any grade: fatigue", "setting": "[4]; all 50 patients", "value": 76, "unit": "%"}, {"measurement": "TEAE any grade: hyperglycaemia", "setting": "[4]; all 50 patients", "value": 80, "unit": "%"}, {"measurement": "TEAE any grade: nausea", "setting": "[4]; all 50 patients", "value": 86, "unit": "%"}, {"measurement": "copanlisib-related TEAE: anaemia", "setting": "[4]; all 50 patients", "value": 42, "unit": "%"}, {"measurement": "copanlisib-related TEAE: anorexia", "setting": "[4]; all 50 patients", "value": 56, "unit": "%"}, {"measurement": "copanlisib-related TEAE: decreased neutrophil count", "setting": "[4]; all 50 patients", "value": 62, "unit": "%"}, {"measurement": "copanlisib-related TEAE: decreased platelet count", "setting": "[4]; all 50 patients", "value": 58, "unit": "%"}, {"measurement": "copanlisib-related TEAE: fatigue", "setting": "[4]; all 50 patients", "value": 66, "unit": "%"}, {"measurement": "copanlisib-related TEAE: hyperglycaemia", "setting": "[4]; all 50 patients", "value": 76, "unit": "%"}, {"measurement": "copanlisib-related TEAE: hypertension", "setting": "[4]; all 50 patients", "value": 46, "unit": "%"}, {"measurement": "copanlisib-related TEAE: nausea", "setting": "[4]; all 50 patients", "value": 74, "unit": "%"}, {"measurement": "copanlisib-related TEAE: vomiting", "setting": "[4]; all 50 patients", "value": 36, "unit": "%"}, {"measurement": "deaths considered related to study treatment", "setting": "[4]; all 50 patients", "value": "No deaths"}, {"measurement": "grade ⩾3 TEAE: decreased neutrophil count", "setting": "[4]; all 50 patients", "value": 62, "unit": "%"}, {"measurement": "grade ⩾3 TEAE: decreased platelet count", "setting": "[4]; all 50 patients", "value": 38, "unit": "%"}, {"measurement": "grade ⩾3 TEAE: fatigue", "setting": "[4]; all 50 patients", "value": 22, "unit": "%"}, {"measurement": "grade ⩾3 TEAE: hyperglycaemia", "setting": "[4]; all 50 patients", "value": 24, "unit": "%"}, {"measurement": "grade ⩾3 TEAE: hypertension", "setting": "[4]; all 50 patients", "value": 42, "unit": "%"}, {"measurement": "grade ⩾3 copanlisib-related AE: decreased neutrophil count", "setting": "[4]; all 50 patients", "value": 48, "unit": "%"}, {"measurement": "grade ⩾3 copanlisib-related AE: decreased platelet count", "setting": "[4]; all 50 patients", "value": 28, "unit": "%"}, {"measurement": "grade ⩾3 copanlisib-related AE: hypertension", "setting": "[4]; all 50 patients", "value": 38, "unit": "%"}, {"measurement": "patients who received insulin as remedial drug therapy", "setting": "[4]; all 50 patients", "value": 14, "unit": "patients"}, {"measurement": "dose modification because of copanlisib-related TEAEs", "setting": "[4]; all 50 patients, 26 patients", "value": 52, "unit": "%"}, {"measurement": "serious AE", "setting": "[4]; all 50 patients, 26 patients", "value": 52, "unit": "%"}, {"measurement": "dose modifications (interruption or dose reduction) for copanlisib, gemcitabine or cisplatin due to TEAEs", "setting": "[4]; all 50 patients, 45 patients", "value": 90, "unit": "%"}, {"measurement": "at least one serious copanlisib-related AE", "setting": "[4]; all 50 patients, eleven patients", "value": 22, "unit": "%"}, {"measurement": "serious AE: abdominal pain", "setting": "[4]; all 50 patients, four patients", "value": 8, "unit": "%"}, {"measurement": "permanently discontinued copanlisib because of TEAEs", "setting": "[4]; all 50 patients, nine patients", "value": 18, "unit": "%"}, {"measurement": "serious copanlisib-related AE: grade 4 sinus tachycardia and grade 4 sepsis", "setting": "[4]; all 50 patients, one patient", "value": 2, "unit": "%"}, {"measurement": "serious AE: lung infection", "setting": "[4]; all 50 patients, six patients", "value": 12, "unit": "%"}, {"measurement": "TEAE of grade 3 hyperglycaemia", "setting": "[4]; all 50 patients, ten patients", "value": 20, "unit": "%"}, {"measurement": "serious AE: dehydration", "setting": "[4]; all 50 patients, three patients", "value": 6, "unit": "%"}, {"measurement": "TEAE of grade 4 hyperglycaemia", "setting": "[4]; all 50 patients, two patients", "value": 4, "unit": "%"}, {"measurement": "grade 4 serious TEAE: sepsis", "setting": "[4]; all 50 patients, two patients", "value": 4, "unit": "%"}, {"measurement": "patients with infusion-related increases in plasma glucose and plasma insulin", "setting": "[4]; all patients", "value": "~80", "unit": "%"}, {"measurement": "signs of increased nephrotoxicity caused by intrarenal accumulation of cisplatin", "setting": "[4]; patients treated with copanlisib plus cisplatin, data not shown", "value": "no signs of increased nephrotoxicity"}, {"measurement": "amount excreted into urine, % of dose", "setting": "[2]", "value": "about 4.9%"}, {"measurement": "inhibition of MATE2-K", "setting": "[5]", "value": "strong inhibitor"}, {"measurement": "PI3K isoform selectivity", "setting": "[6]", "value": "predominant activity against PI3K-δ and PI3K-α isoforms"}, {"measurement": "RP2D of copanlisib in combination with CisGem", "setting": "[7]; cisplatin 25 mg m^−2 + gemcitabine 1000 mg m^−2, days 1 and 8 of a 21-day cycle", "value": 0.8, "unit": "mg/kg"}, {"measurement": "RP2D of copanlisib in combination with gemcitabine", "setting": "[7]; gemcitabine 1000 mg m^−2, days 1, 8 and 15 of a 28-day cycle", "value": 0.8, "unit": "mg/kg"}, {"measurement": "response rate in patients with BTC who had not received prior anti-cancer therapy", "setting": "[8]; 4 out of 11 patients", "value": 36, "unit": "%"}, {"measurement": "response in patients with BTC who had received prior CisGem or gemcitabine-containing chemotherapy", "setting": "[8]; 12 patients", "value": "No response"}, {"measurement": "objective response rate overall", "setting": "[8]; all 50 patients, all cohorts", "value": 10, "unit": "%"}, {"measurement": "stable disease, patients", "setting": "[8]; all 50 patients, 19 patients", "value": 38, "unit": "%"}, {"measurement": "partial response, patients", "setting": "[8]; all 50 patients, four patients", "value": 8, "unit": "%"}, {"measurement": "complete response, patients", "setting": "[8]; all 50 patients, one patient", "value": 2, "unit": "%"}]}, {"smiles": "O=c1ccn([C@@H]2O[C@H](CO)[C@@H](O)C2(F)F)c(=O)[nH]1", "note": "[dFdU, 2’,2’-difluorodeoxyuridine]", "values": [{"measurement": "influence of co-administration with copanlisib on PK", "setting": "[1]; in vivo", "value": "not influenced"}]}, {"smiles": "Nc1ccn([C@@H]2O[C@H](CO)[C@@H](O)C2(F)F)c(=O)n1", "note": "[gemcitabine, reference compound]", "values": [{"measurement": "influence of co-administration with copanlisib on PK", "setting": "[1]; in vivo", "value": "not influenced"}]}]}
